The values below come from patent US20160002733A1, “ASSESSING RISK FOR ENCEPHALOPATHY INDUCED BY 5-FLUOROURACIL OR CAPECITABINE” (THE BOARD OF TRUSTEES OF THE LELAND STANFORD JUNIOR …, priority 2013, published 2016).

Several values for one entry are separate records, joined by “and”; a condition that tells them apart may be missing. Equal values may be shown once. Read-outs that look alike come from different tables or passages of the source.

Data set [1] is described as follows: Prospective measurement of plasma ammonia levels in patients treated with capecitabine. The class given is in vivo, human. On the procedure: Prospective Measurement of Plasma Ammonia Levels in Patients Treated with Capecitabine
Patients donated whole blood for analysis after providing consent according to a protocol approved by the Stanford University Administrative Panel for the Protection of Human Subjects.
Plasma ammonia levels were obtained at Stanford University Medical Center, which followed a strict protocol of immediately placing the blood sample on ice, and then analyzing the sample within 15 minutes. Samples not placed on ice, or analyzed after a longer delay yield artificially elevated plasma ammonia levels due to release of ammonia from erythrocytes and deamination of plasma amino acids (52, 53). […]
Mid-cycle levels were measured after patients had taken capecitabine for 7 to 14 days. […]
To prospectively measure plasma ammonia after capecitabine, we prospectively studied 29 cancer patients (Table 3). […] To estimate baseline plasma ammonia levels, we measured 2 or more levels before the first capecitabine dose or at least 7 days after the previous capecitabine dose.
We monitored changes in cognitive function between baseline and mid-cycle time points with two instruments: a telephone-administered mini-mental status examination, and a patient self-administered questionnaire. […]

Data set [2] is classed as in vivo, human. To be noted: for plasma ammonia: male. The protocol:
Plasma ammonia levels were obtained at Stanford University Medical Center, which followed a strict protocol of immediately placing the blood sample on ice, and then analyzing the sample within 15 minutes. Samples not placed on ice, or analyzed after a longer delay yield artificially elevated plasma ammonia levels due to release of ammonia from erythrocytes and deamination of plasma amino acids (52, 53).
A person with gastric adenocarcinoma underwent subtotal gastrectomy and Roux-en-Y gastrojejunostomy, followed by two cycles of adjuvant carboplatin and capecitabine (1000 mg/m^2 twice a day for 14 days), and then 50 Gy of radiation therapy to the tumor bed with concurrent capecitabine (1000 mg/m^2 twice a day). During each course of capecitabine, they experienced extreme lethargy, without mucositis, diarrhea or hand-foot syndrome.
On the third cycle of carboplatin and capecitabine, self-administered folate 1 mg/d hoping to prevent lethargy. From days 5 to 14 of capecitabine, they became increasingly confused, and then combative and ataxic. Two days after the last capecitabine dose, they were taken to local emergency room for delirium and found to have a normal CT scan of the brain.
After discontinuation of lactulose on discharge from the hospital, plasma ammonia gradually rose and then returned to normal over two months (FIG. 2A). Four months after discharge, mild liver steatosis was noted on CT scan for the first time.
A person with newly diagnosed squamous cell carcinoma of the left tonsil and base of tongue began treatment with docetaxel and cisplatin, followed by a planned 5-day infusion of 5-FU (750 mg/m^2). Past medical history included manic depression treated with valproic acid.
(§1) After 1 day, the infusion 5-FU was held because of diarrhea from C. difficile, which was treated with metronidazole. Two days later, the infusion was resumed. On the third infusion day, the patient developed slurred speech and gait ataxia. On the fifth infusion day, they became delirious and then comatose. MRI and CT scan of the brain, and lumbar puncture were normal. Valproic acid trough levels ([…]) were within therapeutic range, which is sufficient to inhibit N-acetylglutamate synthase (FIG. 1A) and disrupt the urea cycle (11, 12). Despite multiple episodes of diarrhea and a delay of 10 hours following discontinuation of infusion 5-FU, plasma ammonia was elevated at 37 μmol/L. The next day, the patient was alert, and plasma ammonia was 16 μmol/L. The tumor had decreased markedly in size, no longer preventing them from turning their head.
A person with a well-differentiated neuroendocrine tumor of unknown primary began treatment with capecitabine (days 1-14) and temozolomide (days 10-14) after progression of massive liver metastases. […]

Data set [3] can be described thus: Valproic acid trough levels in Patient 2. It counts as in vivo, human. The conditions noted are these: within therapeutic range. The protocol:
as §1

The conditions of data set [4]: high dose continuous infusion 5-FU; sixteen of 280 patients; cited from earlier work.

With `CCCCCOC(=O)Nc1nc(=O)n(C2OC(C)C(O)C2O)cc1F` (centres unmarked) [capecitabine, pentyl[1-(3,4-dihydroxy-5-methyltetrahydrofuran-2-yl)-5-fluoro-2-oxo-1H-pyrimidin-4-yl]carbamate], the “patients with mid-cycle plasma ammonia levels increased above baseline levels” value in data set [1] (29 cancer patients, mid-cycle after 7 to 14 days of capecitabine, by more than 3 or 4 standard deviations (p<0.01 or p<0.001)) is 5 of the 29. Further, the “patients with clinically significant symptoms among those with increased mid-cycle ammonia levels” value in data set [1] (of the 5 patients with increased mid-cycle ammonia, cognitive dysfunction, malaise, fatigue, unsteady gait) is recorded as 2 of the 5. The plasma ammonia level in data set [2] (female, human, in vivo, 7 days after the last capecitabine dose) amounted to 158 µmol/L. For the same compound, in data set [2] (human, in vivo, 7 days after discontinuing capecitabine), the plasma ammonia is 54 µmol/L.
In the case of `OC[C@H]1O[C@@H](O[C@@H]2[C@@H](CO)OC(O)(CO)[C@H]2O)[C@H](O)[C@@H](O)[C@H]1O` (mixture of isomers) [lactulose], in data set [2] (Patient 1 (index case), declined from 158 μmol/L, symptoms resolved), the “plasma ammonia with lactulose treatment” value came to 29 µmol/L.
In the case of `CCCC(CCC)C(=O)O` [Valproic acid, valproic acid], the Valproic acid trough levels in data set [3] is 45 µg/mL and 68 µg/mL.
`O=c1[nH]cc(F)c(=O)[nH]1` [5-FU, 5-fluorouracil]: the “patients who suffered encephalopathy with hyperammonemia” value in data set [4] was 5.7%. In data set [2] (human, in vivo), this compound showed a plasma ammonia of 16 µmol/L.
